Results reported in publication PMC4491811, “Force-induced chemical reactions on the metal centre in a single metalloprotein molecule” (Nature Communications, 2015).

Molecular target: T1, rubredoxin (RD), in polyprotein (RD-GB1)n (Pyrococcus furiosus, UniProt P24297)
T1 construct: gene rub; full-length ferric (FeS4) rubredoxin fused to GB1 fingerprint domain, His-tag purified from E. coli DH5alpha, linked by BM(PEO)3 thiol-maleimide coupling into (RD-GB1)n
T1 sequence (P24297 2-54): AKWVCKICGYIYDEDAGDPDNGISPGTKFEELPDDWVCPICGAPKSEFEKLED
Assay: single-molecule AFM force clamp, FeS4 rupture rate against [KSCN]
Assay type: binding
Conditions: pH 7.4, 100 mM Tris and NaCl, KSCN 5-800 mM; ferric-thiolate bond rupture rate extrapolated to zero force (Bell-Evans); FeS4 centre exposed by force-induced partial unfolding; not an affinity

Q: Which “k (second-order rate constant of ligand substitution)” value does the source give for N#CS [SCN^−] here?
A: The value was 0.36 M⁻¹ s⁻¹.
